This passage reports T/C results from PubChem BioAssay AID264 (DTP/NCI, 2004).

Where “and” joins values, the source holds several entries; their conditions need not be identical. Equal values may be shown once. Inconclusive results are not listed.

This experiment relates to nude mice, LX-1 lung xenograft intrarenal, tumor weight T/C. Description: NCI In Vivo Anticancer Drug Screen. Data for tumor model Human Lung LX-1 Xenograft (intrarenal inoculation) in NU/NU Swiss (nude) mice. As to conditions: endpoint: mean tumor weight change, higher = larger tumour. The method, then: The antitumor activity of compounds was measured in mice bearing transplantable tumors. Survival or tumor size were measured and the results are expressed as the measurement made in the treated group (T) divided by the measurement made in the vehicle treated control group (C). The tumor model used in this assay is Human Lung LX-1 Xenograft (intrarenal inoculation) in NU/NU Swiss (nude) mice

Where [1] appears, read: dose: 150.0 mg/kg/injection, schedule: Q04DX003 (sc), vehicle: saline with Tween-80.
Where [2] appears, read: dose: 100.0 mg/kg/injection, schedule: Q04DX003 (sc), vehicle: saline with Tween-80.
The mark [3] stands for this setting: dose: 50.0 mg/kg/injection, schedule: Q01DX010 (sc), vehicle: saline with Tween-80.
Setting [4] is: dose: 75.0 mg/kg/injection, schedule: Q04DX003 (sc), vehicle: saline with Tween-80.

With `COC1=C(N)C(=O)c2nc(-c3nc(C(=O)O)c(C)c(-c4ccc(OC)c(OC)c4O)c3N)ccc2C1=O`, the T/C was 8 % of control (dose: 0.13 mg/kg/injection, schedule: Q01DX010 (sc), vehicle: saline); 7 % of control and -6 % of control (dose: 0.25 mg/kg/injection, schedule: Q01DX010 (sc), vehicle: saline); -85 % of control (dose: 1.0 mg/kg/injection, schedule: Q01DX010 (sc), vehicle: saline).
`Cc1c2ccc3ccccc3c2c[n+]2ccccc12`: the T/C is 110 % of control (dose: 4.69 mg/kg/injection, schedule: Q04DX003 (sc), vehicle: Klucel (hydroxypropylcellulose) (HPC)); 87 % of control (dose: 9.38 mg/kg/injection, schedule: Q04DX003 (sc), vehicle: Klucel (hydroxypropylcellulose) (HPC)); 72 % of control (dose: 18.75 mg/kg/injection, schedule: Q04DX003 (sc), vehicle: Klucel (hydroxypropylcellulose) (HPC)).
As to `Cc1c(N)nc(C(CC(N)=O)NCC(N)C(N)=O)nc1C(=O)NC(C(=O)NC(C)C(O)CC(=O)NC(C(=O)NC(OC1OC(C)C(N)C(O)C1O)C(O)c1nc(-c2nc(C(=O)NCCCC(N)CC(=O)NCCCNCCCCN)cs2)cs1)C(C)O)C(OC1OC(CO)C(O)C(O)C1OC1OC(CO)C(O)C(OC(N)=O)C1O)c1cnc[nH]1` (stereo unspecified), where the note is “dose: 16.0 mg/kg/injection, schedule: Q04DX003 (sc), vehicle: saline”, the T/C was 73 % of control.
As to `CC(=S)NC(O)C(=O)c1ccccc1` (stereo unspecified), the T/C reads like this: under setting [1], 109 % of control; (dose: 600.0 mg/kg/injection, schedule: Q04DX003 (sc), vehicle: saline with Tween-80) 63 % of control; (dose: 1200.0 mg/kg/injection, schedule: Q04DX003 (sc), vehicle: saline with Tween-80) 99 % of control.
With `O=C1NC(=O)C2C3C=CC(C12)C1C2C(=O)NC(=O)C2C31` (stereo unspecified), the T/C was 123 % of control under setting [2]; 84 % of control (dose: 400.0 mg/kg/injection, schedule: Q04DX003 (sc), vehicle: saline with Tween-80); 75 % of control (dose: 800.0 mg/kg/injection, schedule: Q04DX003 (sc), vehicle: saline with Tween-80); 105 % of control (dose: 1600.0 mg/kg/injection, schedule: Q04DX003 (sc), vehicle: saline with Tween-80).
With `CCC(=O)N(C)[C@@H](C)C(=O)O[C@H]1CC(=O)N(C)c2cc(cc(OC)c2Cl)C/C(C)=C/C=C[C@@H](OC)[C@@]2(O)C[C@H](OC(=O)N2)[C@@H](C)[C@@H]2O[C@@]12C`, the T/C is 106 % of control (dose: 0.13 mg/kg/injection, schedule: Q01DX010 (sc), vehicle: saline + alcohol) and 31 % of control (dose: 0.25 mg/kg/injection, schedule: Q01DX010 (sc), vehicle: saline + alcohol).
On to `CC(=O)O[C@@H]1[C@@H](O)C2=C3[C@]4(C)[C@@H]1C(C)(C)C(=O)C[C@@H]4[C@]3(O)[C@H](OC(C)=O)[C@@]1(C[C@@H]1C)C2=O`, for which the T/C is, setting by setting: (dose: 12.5 mg/kg/injection, schedule: Q01DX010 (sc), vehicle: saline with Tween-80) 104 % of control; (dose: 25.0 mg/kg/injection, schedule: Q01DX010 (sc), vehicle: saline with Tween-80) 58 % of control; under setting [3], 207 % of control.
Regarding `CCOC(=O)NC1=C(N2CC2)C(=O)C(NC(=O)OCC)=C(N2CC2)C1=O`, the T/C is 67 % of control (dose: 0.78 mg/kg/injection, schedule: Q01DX010 (sc), vehicle: saline); 74 % of control (dose: 1.56 mg/kg/injection, schedule: Q01DX010 (sc), vehicle: saline); 56 % of control (dose: 1.56 mg/kg/injection, schedule: Q01DX010 (sc), vehicle: suspension in saline); 77 % of control (dose: 3.12 mg/kg/injection, schedule: Q04DX003 (sc), vehicle: suspension in saline); 81 % of control (dose: 3.13 mg/kg/injection, schedule: Q01DX010 (sc), vehicle: saline); 89 % of control (dose: 3.13 mg/kg/injection, schedule: Q01DX010 (sc), vehicle: suspension in saline). The T/C runs as follows: (dose: 3.13 mg/kg/injection, schedule: Q04DX003 (ip), vehicle: saline) 64 % of control; (dose: 6.25 mg/kg/injection, schedule: Q01DX010 (sc), vehicle: saline) 35 % of control; (dose: 6.25 mg/kg/injection, schedule: Q04DX003 (ip), vehicle: saline) 96 % of control; (dose: 6.25 mg/kg/injection, schedule: Q04DX003 (sc), vehicle: saline) 75 % of control; (dose: 6.25 mg/kg/injection, schedule: Q04DX003 (sc), vehicle: suspension in saline) 65 % of control; (dose: 12.5 mg/kg/injection, schedule: Q04DX003 (ip), vehicle: saline) 34 % of control. For the same molecule, the T/C is, setting by setting: (dose: 12.5 mg/kg/injection, schedule: Q04DX003 (sc), vehicle: saline) 71 % of control; (dose: 25.0 mg/kg/injection, schedule: Q04DX003 (ip), vehicle: saline) 9 % of control.
`F[B-](F)(F)F`: the T/C runs as follows: (dose: 300.0 mg/kg/injection, schedule: Q04DX003 (sc), vehicle: gum acacia) 103 % of control; (dose: 600.0 mg/kg/injection, schedule: Q04DX003 (sc), vehicle: gum acacia) 101 % of control; (dose: 1200.0 mg/kg/injection, schedule: Q04DX003 (sc), vehicle: gum acacia) 84 % of control.
Regarding `COC1/C=C\C=C(/C)C(=O)NC2=CC(=O)C=C(C2=O)C(OC)C(C)CC(OC)C(OC)C(C)/C=C(/C)C1OC(N)=O` (stereo unspecified), the T/C (dose: 4.5 mg/kg/injection, schedule: Q04DX003 (sc), vehicle: Klucel (hydroxypropylcellulose) (HPC)) is 82 % of control.
As to `CN=C(N)N/N=C(\C)c1ccc2oc3ccc(/C(C)=N/NC(N)=NC)cc3c2c1`, the T/C runs as follows: under setting [4], 89 % of control; under setting [1], 65 % of control.
For the molecule `Clc1cc(Cl)c(C[N+]23CN4CN(CN(C4)C2)C3)cc1Cl`, the T/C (dose: 18.75 mg/kg/injection, schedule: Q04DX003 (sc), vehicle: saline with Tween-80) is 76 % of control; the T/C (dose: 37.5 mg/kg/injection, schedule: Q04DX003 (sc), vehicle: saline with Tween-80) is 96 % of control; the T/C under setting [4] was 91 % of control; the T/C under setting [1] was 107 % of control.
Consider `CC/C(=C(/CC)c1ccc(O)cc1)c1ccc(O)cc1`, for which the T/C is 106 % of control under setting [3] and 105 % of control (dose: 100.0 mg/kg/injection, schedule: Q01DX010 (sc), vehicle: saline with Tween-80).
For `Cc1cc(NCCCCCCNc2cc(C)nc3cc(N(C)C)ccc23)c2ccc(N(C)C)cc2n1`, the T/C (dose: 75.0 mg/kg/injection, schedule: Q04DX003 (sc), vehicle: distilled water + Tween-80 + alcohol) is 46 % of control and the T/C (dose: 150.0 mg/kg/injection, schedule: Q04DX003 (sc), vehicle: distilled water + Tween-80 + alcohol) is 44 % of control.
As for `Cc1cc(N2C(=O)CCSC2=S)ccc1Cl`, the T/C was 60 % of control (dose: 75.0 mg/kg/injection, schedule: Q04DX003 (sc), vehicle: Klucel (hydroxypropylcellulose) (HPC)); 111 % of control (dose: 150.0 mg/kg/injection, schedule: Q04DX003 (sc), vehicle: Klucel (hydroxypropylcellulose) (HPC)); 62 % of control (dose: 300.0 mg/kg/injection, schedule: Q04DX003 (sc), vehicle: Klucel (hydroxypropylcellulose) (HPC)); 75 % of control (dose: 600.0 mg/kg/injection, schedule: Q04DX003 (sc), vehicle: Klucel (hydroxypropylcellulose) (HPC)).
With `CC(=O)[O][Pb]([O]C(C)=O)([c]1ccccc1)[c]1ccccc1`, the T/C (dose: 400.0 mg/kg/injection, schedule: Q01DX010 (sc), vehicle: Klucel (hydroxypropylcellulose) (HPC)) is 40 % of control.
For the molecule `C=C1N(C)c2ccccc2C1(C)C`, the T/C is, setting by setting: (dose: 50.0 mg/kg/injection, schedule: Q04DX003 (sc), vehicle: saline with Tween-80) 80 % of control; under setting [2], 76 % of control.
`Cc1ncc(CNC(=O)N(CCCl)N=O)c(N)n1`: the T/C (dose: 18.75 mg/kg/injection, schedule: Q04DX003 (sc), vehicle: saline) was 61 % of control.
Turning to `COC(=O)C12OCC34C(CC5C(C)=CC(=O)C(O)C5(C)C3C(O)C1O)OC(=O)C(OC(=O)CC(C)C)C24` (stereo unspecified), the T/C (dose: 3.0 mg/kg/injection, schedule: Q04DX003 (sc), vehicle: saline + alcohol) was 48 % of control.
For `O=C(NP(=O)(N1CC1)N1CC1)c1cc(I)ccc1I`, the T/C is 73 % of control (dose: 50.0 mg/kg/injection, schedule: Q01DX010 (sc), vehicle: saline) and 54 % of control (dose: 100.0 mg/kg/injection, schedule: Q01DX010 (sc), vehicle: saline).
Consider `c1cc[c]([Sn][c]2ccccc2)cc1`, for which the T/C runs as follows: (dose: 10.0 mg/kg/injection, schedule: Q01DX010 (sc), vehicle: saline) 78 % of control; (dose: 20.0 mg/kg/injection, schedule: Q01DX010 (sc), vehicle: saline) 54 % of control; (dose: 40.0 mg/kg/injection, schedule: Q01DX010 (sc), vehicle: saline) 81 % of control.
